In patent publication US20260098061A1, “EPHA2-BINDING PENDING PEPTIDE AND COMPOSITION COMPRISING SAME” (PeptiDream Inc., priority 2022, published 2026):
Numbered stars: 1 amine (or outer) side, 2 acyl side, 3 side chain; on linkers, the order of the positions; unused ones are H or OH. Bridge positions count the residues as written; N and C are the ends. Square brackets hold non-standard residues; d marks the D form. Side chains are listed from the residue outwards. Peptide text beside a SMILES is read from it. * marks the point of attachment. Piperazinyl(4-CH2COOH) = O=C(O)CN1CCN(*)CC1; Trp(1-Me) = Cn1cc(C[C@H](N)C(=O)O)c2ccccc21; NMe3Pal = CN[C@@H](Cc1cccnc1)C(=O)O; NMeF = CN[C@@H](Cc1ccccc1)C(=O)O; Aad = N[C@@H](CCCC(=O)O)C(=O)O; CO = O=C([*:1])[*:2]; βAla = NCCC(=O)O

Biological target: T1, Recombinant Human EphA2 Fc Protein (Homo sapiens, UniProt P29317)
T1 construct: purchased Elabscience
Assay: SPR interaction analysis (Biacore T200), kinetics of peptides against EphA2
Type: binding
Conditions: Recombinant Human EphA2 Fc Protein captured by Human Antibody Capture kit; single-cycle kinetics; 25° C.; HBS-P+ buffer with 1% DMSO
Description: Example 14 Interaction Analysis by SPR was Performed Using Biacore (Cytiva)
SPR assay was performed using Biacore T200 (Cytiva).
The HBS-P+ buffer (10 mM HEPES (pH7.4), 150 mM NaCl, 0.05% (v/V) Surfactant P20) containing 1% DMSO was used as running buffer. Recombinant Human EphA2 Fc Protein (Fc tag, Elabscience) was captured by Human Antibody Capture kit (Cytiva). Peptide samples in DMSO were diluted with running buffer, and prepared five serial dilutions. Using these serial dilutions, kinetics of peptides against EphA2 was measured at a flow rate of 30 mL/min at 25° C. The method adopted for sample measurement was a single-cycle kinetics method. The analysis was conducted using the evaluation software 3.0 provided with Biacore T200. Kinetics fitting was done on the difference data obtained by subtracting the baseline data from sample measurement data. KD values were calculated based on the association rate constant (ka) and dissociation rate constant (kd).

SMILES | Kd [nM]
CC(=O)NCCCC[C@@H](NC(=O)CCNC(=O)[C@@H]1CSCC(=O)N[C@H](CCCCNC(=O)N2CCN(CC(=O)O)CC2)C(=O)N(C)[C@@H](Cc2cccnc2)C(=O)N[C@@H](CC(N)=O)C(=O)N[C@@H](CC(C)C)C(=O)N[C@@H](CCCCNC(=O)N2CCN(CC(=O)O)CC2)C(=O)N(C)[C@@H](Cc2ccccc2)C(=O)N[C@@H](Cc2cn(C)c3ccccc23)C(=O)N[C@@H](C(C)C)C(=O)N[C@@H](Cc2cn(C)c3ccccc23)C(=O)N[C@@H]([C@@H](C)O)C(=O)N[C@@H](CCC(=O)O)C(=O)N1)C(N)=O [PDC_EphA2-00008085, dkCOpipzaa-Me3Py-N-L-KCOpipzaa-MeF-W1Me-V-W1Me-T-E-C-bA-dkAc-NH2] ({CH2CO}-[dK]([CO-Piperazinyl(4-CH2COOH)])[NMe3Pal]NLK([CO-Piperazinyl(4-CH2COOH)])[NMeF][Trp(1-Me)]V[Trp(1-Me)]TEC[βAla][dK](Ac)-NH2; thioether N-12) | 1 to 10
CC(=O)NCCCC[C@@H](NC(=O)CCNC(=O)[C@@H]1CSCC(=O)N[C@H](CCCCNC(=O)N2CCN(CC(=O)O)CC2)C(=O)N(C)[C@@H](Cc2cccnc2)C(=O)N[C@@H](CC(N)=O)C(=O)N[C@@H](CC(C)C)C(=O)N[C@@H](CCCCNC(=O)N2CCN(CC(=O)O)CC2)C(=O)N(C)[C@@H](Cc2ccccc2)C(=O)N[C@@H](Cc2cn(C)c3ccccc23)C(=O)N[C@@H](C(C)C)C(=O)N[C@@H](Cc2cn(C)c3ccccc23)C(=O)N[C@@H]([C@@H](C)O)C(=O)N[C@@H](CCCC(N)=O)C(=O)N1)C(N)=O [PDC_EphA2-00008086, dkCOpipzaa-Me3Py-N-L-KCOpipzaa-MeF-W1Me-V-W1Me-T-Hgn-C-bA-dkAc-NH2] ({CH2CO}-[dK]([CO-Piperazinyl(4-CH2COOH)])[NMe3Pal]NLK([CO-Piperazinyl(4-CH2COOH)])[NMeF][Trp(1-Me)]V[Trp(1-Me)]T[Aad](NH2)C[βAla][dK](Ac)-NH2; thioether N-12) | < 1
CC(=O)NCCCC[C@@H](NC(=O)CCNC(=O)[C@@H]1CSCC(=O)N[C@H](C)C(=O)N(C)[C@@H](Cc2cccnc2)C(=O)N[C@@H](CC(N)=O)C(=O)N[C@@H](CC(C)C)C(=O)N[C@@H](CCCC(=O)O)C(=O)N(C)[C@@H](Cc2ccccc2)C(=O)N[C@@H](Cc2cn(C)c3ccccc23)C(=O)N[C@@H](CCCCNC(=O)N2CCN(CC(=O)O)CC2)C(=O)N[C@@H](Cc2cn(C)c3ccccc23)C(=O)N[C@@H]([C@@H](C)O)C(=O)N[C@@H](CCC(=O)O)C(=O)N1)C(N)=O [PDC_EphA2-00008087, da-Me3Py-N-L-Hgl-MeF-W1Me-KCOpipzaa-W1Me-T-E-C-bA-dkAc-NH2] ({CH2CO}-[dA][NMe3Pal]NL[Aad][NMeF][Trp(1-Me)]K([CO-Piperazinyl(4-CH2COOH)])[Trp(1-Me)]TEC[βAla][dK](Ac)-NH2; thioether N-12) | < 1
CC(=O)NCCCC[C@@H](NC(=O)CCNC(=O)[C@@H]1CSCC(=O)N[C@H](C)C(=O)N(C)[C@@H](Cc2cccnc2)C(=O)N[C@@H](CC(N)=O)C(=O)N[C@@H](CC(C)C)C(=O)N[C@@H](CCCCNC(=O)N2CCN(CC(=O)O)CC2)C(=O)N(C)[C@@H](Cc2ccccc2)C(=O)N[C@@H](Cc2cn(C)c3ccccc23)C(=O)N[C@@H](CCCCNC(=O)N2CCN(CC(=O)O)CC2)C(=O)N[C@@H](Cc2cn(C)c3ccccc23)C(=O)N[C@@H]([C@@H](C)O)C(=O)N[C@@H](CCC(=O)O)C(=O)N1)C(N)=O [PDC_EphA2-00008088, da-Me3Py-N-L-KCOpipzaa-MeF-W1Me-KCOpipzaa-W1Me-T-E-C-bA-dkAc-NH2] ({CH2CO}-[dA][NMe3Pal]NLK([CO-Piperazinyl(4-CH2COOH)])[NMeF][Trp(1-Me)]K([CO-Piperazinyl(4-CH2COOH)])[Trp(1-Me)]TEC[βAla][dK](Ac)-NH2; thioether N-12) | < 1
